Data taken from paper PMC9006992 (Frontiers in Pharmacology, 2022).
Blank lines part the entries; values can stand above or below the compound they belong to.

What was measured:
[1] = Metabolite profiling in human plasma, urine and feces pools (HPLC-AMS); type: in vivo; conditions: for Feces % of dose: based on geometric mean of total cumulative excretion in feces; for Urine % of dose: based on geometric mean of total cumulative excretion in urine
Method: For each subject, plasma samples were pooled based on the Hamilton pooling scheme ([Hamilton et al., 1981]) with samples collected within 72 h. Thereafter, a single cross-subject plasma pool was prepared by using a constant proportion of each individual Hamilton pool. Proportional pooling was applied for urine and homogenized feces samples. […] A single cross-subject pool for both excreta was prepared by taking a sample representing 10% of each individual pool to obtain a representative pool of at least 95% of the total excreted ^14C across all subjects.
Pooled plasma and feces samples were further purified by liquid-liquid extraction prior to HPLC analysis. The pooled plasma sample (4,000 μl) was extracted with 1200 μl acetonitrile:methanol (80:20, v/v) (Thermo Fisher Scientific, Waltham, MA, United States). After mixing for 1 min, the sample was centrifuged for 10 min at 3,750 rpm and 10°C […]. Thereafter, the supernatant was collected, dried, and aliquoted for analysis. These extraction steps were repeated two additional times with the remaining pellet to obtain a high extraction recovery. The homogenized feces sample (200 mg) was extracted by addition of 800 μl acetonitrile, followed by centrifugation for 5 min at 3,750 rpm and 4°C. The supernatant was collected and dried with nitrogen at 40°C. The remaining pellet was extracted by addition of 800 μl acetonitrile:water (1:1, v/v) followed by a drying process with nitrogen. The dried extract was reconstituted with acetonitrile:mobile phase A (see Analytical Method for Metabolite Profiling) (1:9, v/v) and vortexed for 5 min. […] Urine samples were directly used for analysis.
Metabolite profiles were generated by using HPLC together with an AMS detector. The plasma extract (120 μl), the feces extract (10 μl), and urine (100 μl) were injected onto the HPLC (Agilent 1290, Agilent Technologies, Santa Clara, CA, United States) equipped with a binary pump G4220A (Agilent Technologies), an autosampler G4226A (Agilent Technologies), a column compartment G1316C (Agilent Technologies), and a fraction collector G1364C (Agilent Technologies). […] Mobile phases consisted of 20 mM ammonium formate adjusted to pH 9.5 with ammonium hydroxide (phase A) and a 7:2:1 (v/v/v) mixture of acetonitrile, methanol, and mobile phase A (phase B). […] Following HPLC analysis, pools of HPLC fractions were prepared by taking equivalent portions of consecutive individual fractions for analysis with AMS (SSAMS-250, National Electrostatics Corp., Middleton, WI, United States). The amounts of ^14C in each fraction and fraction pool were summed and compared to the solution injected onto the HPLC for the determination of profile recovery.

[2] = design: method as in Richard-Bildstein et al., 2020; conditions: ref Richard-Bildstein et al., 2020; cited from earlier work
[3] = Pharmacokinetics of total 14C-radioactivity in human plasma (microtracer, AMS); type: in vivo; conditions: single oral 9.2 μg 14C-ACT-1004-1239 + 100 mg ACT-1004-1239
CYP3A4 = assay: Incubation with recombinant human CYP3A4; type: in vitro ADME; conditions: intersystem extrapolation scaling approach; 100 pmol/ml CYP, 10 μM, 60 min
Method: (§1) ^14C-ACT-1004-1239 was incubated for 60 min with 100 pmol/ml of the respective recombinant CYP (CYP1A1, CYP1A2, CYP2B6, CYP2C8, CYP2C9, CYP2C19, CYP2D6, or CYP3A4) in 100 mM phosphate buffer (pH 7.4) at a final ^14C-ACT-1004-1239 concentration of 10 μM. The incubation was initiated by addition of the pre-warmed NADPH-regenerating system and terminated by the addition of one volume equivalent acetonitrile. The NADPH-regenerating system was prepared as described in Incubation With HLMs and CYP-Specific Inhibitors. The organic solvent concentration in all incubations was kept at 0.5% (v/v). Control incubations in the absence of the NADPH-regenerating system or CYP, as well as incubations with control bactosomes, were performed in parallel under otherwise identical conditions. The samples were centrifuged for 10 min at 20,800 g and 10°C to obtain the supernatant which was used for HPLC analysis (as described in Analytical Method for Metabolite Profiling). The resulting data were further used to determine their contribution to the metabolic clearance in vitro by applying the intersystem extrapolation scaling approach as described by [Chen et al. (2011)]. […]

[4] = ref Huynh et al., cited from earlier work
CYP2C19 = assay: Incubation with recombinant human CYP2C19; type: in vitro ADME; conditions: intersystem extrapolation scaling approach; 100 pmol/ml CYP, 10 μM, 60 min
Method: as §1

CYP2C8 = assay: Incubation with recombinant human CYP2C8; type: in vitro ADME; conditions: intersystem extrapolation scaling approach; 100 pmol/ml CYP, 10 μM, 60 min
Method: as §1

[5] = tested on: carboxylesterases (i.e., CES1b, CES1c, and CES2); assay: Exploratory in vitro studies on enzymes catalyzing formation of M23; type: in vitro ADME; conditions: Idorsia data on file
[6] = Quantification of M38 in pooled human plasma using a synthesized reference; type: in vivo; conditions: non-radiolabelled metabolite
[7] = tested on: human liver microsomes (HLM); assay: Incubation with HLMs and CYP-specific inhibitors; type: in vitro ADME; conditions: 10 μM 14C-ACT-1004-1239, 1 μM ketoconazole (CYP3A4 inhibitor)

Feces % of dose [1]: 5.2% | Urine % of dose [1]: 10.1% | plasma concentration of 14C-drug-related material after 72 h post-dose [3]: below the limit of quantification | contribution of CYP3A4 to total M1 formation (total turnover in vitro) (CYP3A4): 94% | contribution of CYP2C19 to M1 formation (CYP2C19): 5.2% | contribution of CYP2C8 to M1 formation (CYP2C8): 1.2%
SMILES: O=C(N[C@H]1CCN(CC2CC2)C[C@@H]1C(=O)NC1(c2ncccn2)CC1)c1cc(-c2ccc(F)cc2F)on1 [ACT-1004-1239]
absorption in rats [2]: rapidly absorbed | volume of distribution in rats [2]: in excess of total body water | safety and tolerability profile ([4]; healthy humans, dose range 1–200 mg, single and multiple dose, 2021b, Huynh et al., 2021a): favorable safety and tolerability profiles | time to reach maximum plasma concentration [tmax] ([4]; male and female subjects, oral 1-200 mg, 2021a, Huynh et al., 2021b): 1 to 3 h | accumulation at steady state ([4]; multiple-dose, 2021a): almost no accumulation | time to steady-state conditions of systemic exposure ([4]; multiple-dose, 2021a): ≤ 3 days | absolute bioavailability ([4]; 2021b): 53% | effect of food on the PK ([4]; 2021b): no relevant effect | volume of distribution ([4]; 2021b): 183 L

Urine + feces % of dose ([1]; 14C-radioactive dose excreted): 25.1% | Feces % of dose [1]: 23.7% | Urine % of dose [1]: 1.4%
SMILES: O=C(N[C@H]1CCNC[C@@H]1C(=O)NC1(c2ncccn2)CC1)c1cc(-c2ccc(F)cc2F)on1 [M1]

Plasma % in sample (relative abundance, % of total radioactivity) ([1]; cross-subject plasma pool, samples within 72 h): 21.1%
SMILES: O=C(O)c1cc(-c2ccc(F)cc2F)on1 [M23]
involvement of carboxylesterases in formation of M23 [5]: excluded the involvement of carboxylesterases

presence in pooled human plasma [6]: negligible
SMILES: N[C@H]1CCN(CC2CC2)C[C@@H]1C(=O)NC1(c2ncccn2)CC1 [M38]

SMILES: CC(=O)N1CCN(c2ccc(OCC3COC(Cn4ccnc4)(c4ccc(Cl)cc4Cl)O3)cc2)CC1 (stereo not shown) [ketoconazole]
formation of M1 in presence of inhibitor [7]: completely abolished
